In brackets after ≈: the same amount, converted by molar mass. Like-named read-outs stand apart in the source and are kept apart here.
Key:
Veillonella spp. = assay: Agar dilution MIC, 30 clinical isolates; type: cell-based
Klebsiella spp. = assay: Broth microdilution MIC, 50 clinical isolates (20 K. oxytoca, 30 K. pneumoniae); type: cell-based
Protocol: Minimal inhibitory concentration (MIC) values were determined by broth microdilution or agar dilution in accordance with guidelines from the Clinical and Laboratory Standards Institute (CLSI; (1) “Methods for Dilution Antimicrobial Susceptibility Tests for Bacteria That Grow Aerobically; Approved Standard; 11th ed.” CLSI standard M07-A11, 2018; (2) “Performance Standards for Antimicrobial Susceptibility Testing; Twenty-Eighth Informational Supplement,” CLSI document M100-S28, 2018; and (3) “Methods for Antimicrobial Susceptibility Testing of Anaerobic Bacteria; Approved Standard—Eighth Edition,” CLSI document M11-A8, 2012).
Tested aerobically by broth microdilution: • Escherichia coli, n=50 • Klebsiella spp., n=50 • Pseudomonas aeruginosa, n=50 • Streptococcus spp., n=50 • Staphylococcus aureus, n=50 • Enterococcus faecalis, n=50 • Enterobacter aerogenes, n=50 • Proteus mirabilis, n=50
Broth microdilution testing of aerobic bacteria was conducted in cation-adjusted Mueller Hinton broth (MHBII). For testing streptococci, lysed horse blood (LHB) was added to MHBII broth at a final concentration of 3%. Where LHB was used, it was added after filtering.
Broth microdilution susceptibility testing in 96-well microplates was conducted in accordance with CLSI methods (1) and (2). Automated liquid handlers were used to conduct serial dilutions and liquid transfers, including the Multidrop 384 (Labsystems, Helsinki, Finland), Biomek 2000, and the Biomek FX (Beckman Coulter, Fullerton, Calif.). All wells in columns 2 through 12 of a standard 96-well microdilution plate (Costar 3795) were filled with 150 μL of the appropriate diluent. Then, 300 μL of the test agents were added to the wells of column 1 of the plates at 100× the highest final concentration to be tested. Serial two-fold dilutions were made across the rows through column 11 using the Biomek 2000. The wells of column 12 contained no drug and served as the growth control wells. This plate served as the “mother plate” from which MIC assay plates or “daughter plates” were made.
The daughter plates were loaded with 190 μL per well of the appropriate medium using the Multidrop 384. The daughter plates were created using the Biomek FX which transferred 2 μL of drug solution from each well of a mother plate to each corresponding well of the daughter plate in a single step. A standardized inoculum of each test organism was prepared per CLSI methods (1) to equal a 0.5 McFarland standard, followed by a dilution of 1:20 for aerobes and 1:10 for anaerobes. The plates were then inoculated with 10 μL of the diluted inoculum using the Biomek 2000 from low to high drug concentration, resulting in a final concentration of approximately 5×10^5 CFU/mL per well. An un-inoculated plate was incubated in parallel for each medium for the purpose of assessing solubility of the drug in the test media.
Inoculated plates were stacked 3 or 4 high, covered with a sterile lid on the top plate, placed into boxes with CO2 planchets (streptococci) or plastic bags (all other isolates). Plates were incubated at 35° C. for 16-24 hr in ambient air for aerobes or for 42-48 hr in the anaerobic environment of the Bactron II anaerobe chamber (Sheldon Manufacturing Co.; Cornelius, Oreg.). Following incubation, the microplates were removed from the incubator and viewed from the bottom using a plate viewer. The MIC values were read and recorded as the lowest concentration of drug that inhibited visible growth of the organism as per CLSI methods (1) and (2).

E. coli ATCC 25922 = assay: Time-kill assay; type: cell-based, Escherichia coli; settings: 2×, 4×, 8× MIC; 2, 6, 24 hr
[1] = test system: Streptococcus spp. spontaneous mutants; settings: S. pneumoniae ATCC 49619; CLSI QC range shown in parentheses; cited from earlier work
[2] = 30 Veillonella spp. clinical isolates

In the case of `CO/N=C(\C(=O)N[C@@H]1C(=O)N2C(C(=O)O)=C(CSc3nc(=O)c(=O)[nH]n3C)CS[C@H]12)c1csc(N)n1` [ceftriaxone], the isolates resistant (Veillonella spp.) is reported as 3%, the “isolates with intermediate resistance” value (Veillonella spp.) is reported as 10% and the “% I” value (Veillonella spp.; [2]) is reported as 10%. For the same compound, the “% R” value (Veillonella spp.; [2]) was 3%, the “% S” value (Veillonella spp.; [2]) was 87% and the MIC50 (Veillonella spp.; [2]) was 16 µg/mL (≈ 28.9 µM). For the same compound, the MIC90 (Veillonella spp.; [2]) was 32 µg/mL (≈ 57.7 µM), the MIC50 (Veillonella spp.; Veillonella, read-out: MIC50) was 16 µg/mL (≈ 28.9 µM) and the MIC90 (Veillonella spp.; Veillonella, read-out: MIC90) was 32 µg/mL (≈ 57.7 µM). For the same compound, the Mode (Veillonella spp.; modal MIC, 30 Veillonella spp. clinical isolates) was 16 µg/mL, the “% I” value (Klebsiella spp.) was 6% and the “% R” value (Klebsiella spp.) was 28%. The “% S” value (Klebsiella spp.) was 66%, the Mode (Klebsiella spp.) was 0.06 µg/mL and the “Cumulative percentage of isolates at MIC” value (Klebsiella spp.; 0.015 μg/mL) was 2.0%. The “Number of test isolates at MIC” value (Klebsiella spp.; 0.015 μg/mL) was 1, the “Cumulative percentage of isolates at MIC” value (Klebsiella spp.; 0.03 μg/mL) was 12.0% and the “Number of test isolates at MIC” value (Klebsiella spp.; 0.03 μg/mL) was 5. For the same compound, the “Cumulative percentage of isolates at MIC” value (Klebsiella spp.; 0.06 μg/mL) was 14.0%, the “Number of test isolates at MIC” value (Klebsiella spp.; 0.06 μg/mL) was 16 and the “Cumulative percentage of isolates at MIC” value (Klebsiella spp.; 0.5 μg/mL) was 64.0%. For the same compound, the “Number of test isolates at MIC” value (Klebsiella spp.; 0.5 μg/mL) was 1, the “Cumulative percentage of isolates at MIC” value (Klebsiella spp.; 1 μg/mL) was 66.0% and the “Number of test isolates at MIC” value (Klebsiella spp.; 1 μg/mL) was 1. The “Cumulative percentage of isolates at MIC” value (Klebsiella spp.; 2 μg/mL) was 72.0%, the “Number of test isolates at MIC” value (Klebsiella spp.; 2 μg/mL) was 3 and the “Cumulative percentage of isolates at MIC” value (Klebsiella spp.; 8 μg/mL) was 76.0%. The “Number of test isolates at MIC” value (Klebsiella spp.; 8 μg/mL) was 2, the “Cumulative percentage of isolates at MIC” value (Klebsiella spp.; 32 μg/mL) was 80.0% and the “Number of test isolates at MIC” value (Klebsiella spp.; 32 μg/mL) was 2. For the same compound, the “Cumulative percentage of isolates at MIC” value (Klebsiella spp.; >128 μg/mL) was 100.0%, the “Number of test isolates at MIC” value (Klebsiella spp.; >128 μg/mL) was 10 and the MIC90 (Klebsiella spp.; Klebsiella) was > 128 µg/mL. The MIC50 (Klebsiella spp.; Klebsiella, read-out: MIC50) was 0.12 µg/mL (≈ 0.216 µM), the “% I” value (Klebsiella spp.; listed as CTR) was 6% and the “% R” value (Klebsiella spp.; listed as CTR) was 28%. The MIC90 (Klebsiella spp.; listed as CTR) was >128 µg/mL, the “time-kill kinetics outcome (bactericidal = ≥3 log reduction in CFU per mL)” value (E. coli ATCC 25922) was “bactericidal at 8×MIC at 24 hr” and the “MIC, CLSI QC range” value [1] was “(0.03-0.12)^1 μg/mL”.
